Source: patent US20240018133A1, “MODULATORS OF THE INTEGRATED STRESS PATHWAY” (Calico Life Sciences LLC, priority 2019, published 2024)

Each molecule was assayed on ATF4 luciferase reporter (human full-length ATF4 5'-UTR fused to firefly luciferase) in HEK293T cells (assay: ATF4-Luc assay (in vitro model of VWMD): HEK293T cells carrying ATF4 luciferase reporter, tunicamycin-treated). Conditions: Homo sapiens, HEK-293T, 1 μg/mL tunicamycin, 7 hours, One Glo luminescence.
Type: cell-based
Outline: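 Stable HEK293T line with human ATF4 5′-UTR–firefly luciferase reporter treated with 1 μg/mL tunicamycin plus 200 nM compound for 7 h. Luminescence read; EC50 derived.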

**Q.** With `O=C(NC12CCC(NC(=O)[C@@H]3CC(=O)c4cc(Cl)ccc4O3)(CC1)CC2)c1ccc(OC(F)(F)F)cn1` [Compound 358, N-(4-{[(2S)-6-chloro-4-oxo-3,4-dihydro-2H-1-benzopyran-2-carbonyl]amino}bicyclo[2.2.2]octan-1-yl)-5-(trifluoromethoxy)pyridine-2-carboxamide] as the molecule, how does the EC50 read?
**A.** > 2000 nM

**Q.** With `Cc1cc(OCC(=O)NC23CC(NC(=O)[C@H]4C[C@@H](O)c5cc(F)c(F)cc5O4)(C2)C3)ccc1F` [Compound 359, (2R,4R)-6,7-difluoro-N-{3-[2-(4-fluoro-3-methylphenoxy)acetamido]bicyclo[1.1.1]pentan-1-yl}-4-hydroxy-3,4-dihydro-2H-1-benzopyran-2-carboxamide] as the molecule, how does the EC50 read?
**A.** < 10 nM

**Q.** With `Cc1cc(OCC(=O)NC23CC(NC(=O)[C@@H]4C[C@H](O)c5cc(Cl)ccc5O4)(C2)C3)ccc1F` [Compound 360, (2S,4S)-6-chloro-N-{3-[2-(4-fluoro-3-methylphenoxy)acetamido]bicyclo[1.1.1]pentan-1-yl}-4-hydroxy-3,4-dihydro-2H-1-benzopyran-2-carboxamide] as the molecule, how does the EC50 read?
**A.** 10 to 50 nM

**Q.** For `O=C(NC12CCC(NC(=O)[C@H]3C[C@@H](O)c4cc(Cl)ccc4O3)(CC1)CC2)c1ccc(OC(F)(F)F)cn1` [Compound 361, N-(4-{[(2R,4R)-6-chloro-4-hydroxy-3,4-dihydro-2H-1-benzopyran-2-carbonyl]amino}bicyclo[2.2.2]octan-1-yl)-5-(trifluoromethoxy)pyridine-2-carboxamide], which EC50 is on record?
**A.** 50 to 250 nM

**Q.** For `O=C(NC12CCC(NC(=O)[C@@H]3C[C@H](O)c4cc(Cl)ccc4O3)(CC1)CC2)c1ccc(OC(F)(F)F)cn1` [Compound 362, N-(4-{[(2S,4S)-6-chloro-4-hydroxy-3,4-dihydro-2H-1-benzopyran-2-carbonyl]amino}bicyclo[2.2.2]octan-1-yl)-5-(trifluoromethoxy)pyridine-2-carboxamide], which EC50 is on record?
**A.** 500 to 2000 nM

**Q.** `O=C(COc1ccc(Cl)c(F)c1)NC12CCC(NC(=O)C3CC(=O)c4cc(Cl)ccc4O3)(CC1)NC2=O` (centres unmarked) [Compound 363, 6-chloro-N-{4-[2-(4-chloro-3-fluorophenoxy)acetamido]-3-oxo-2-azabicyclo[2.2.2]octan-1-yl}-4-oxo-3,4-dihydro-2H-1-benzopyran-2-carboxamide] was tested. Which EC50 did it give?
**A.** 10 to 50 nM

**Q.** With `O=C(COc1ccc(Cl)c(F)c1)NC12CC(NC(=O)[C@H]3C[C@H](O)c4cc(Cl)c(F)cc4O3)(C1)C2` [Compound 367, (2R,4S)-6-chloro-N-{3-[2-(4-chloro-3-fluorophenoxy)acetamido]bicyclo[1.1.1]pentan-1-yl}-7-fluoro-4-hydroxy-3,4-dihydro-2H-1-benzopyran-2-carboxamide] as the molecule, how does the EC50 read?
**A.** < 10 nM

**Q.** With `O=C(NC12CCC(NC(=O)[C@H]3C[C@@H](O)c4cc(Cl)ccc4O3)(C1)C2)c1ccc(OC(F)(F)F)cn1` [Compound 373, N-(4-{[(2R,4R)-6-chloro-4-hydroxy-3,4-dihydro-2H-1-benzopyran-2-carbonyl]amino}bicyclo[2.1.1]hexan-1-yl)-5-(trifluoromethoxy)pyridine-2-carboxamide] as the molecule, how does the EC50 read?
**A.** 10 to 50 nM

**Q.** How did the EC50 turn out when `O=C(NC12CCC(NC(=O)[C@H]3C[C@@H](O)c4cc(Cl)ccc4O3)(C1)C2)c1ccc(C(F)(F)F)cc1` [Compound 374, (2R,4R)-6-chloro-4-hydroxy-N-{4-[4-(trifluoromethyl)benzamido]bicyclo[2.1.1]hexan-1-yl}-3,4-dihydro-2H-1-benzopyran-2-carboxamide] was run?
**A.** 250 to 500 nM

**Q.** How did the EC50 turn out when `O=C(COc1ccc(Cl)c(F)c1)N[C@@H]1C[C@@H]2O[C@H]1C[C@H]2NC(=O)[C@H]1C[C@@H](O)c2cc(Cl)ccc2O1` [Compound 375, (2R,4R)-6-chloro-N-{(1S,2R,4S,5R)-5-[2-(4-chloro-3-fluorophenoxy)acetamido]-7-oxabicyclo[2.2.1]heptan-2-yl}-4-hydroxy-3,4-dihydro-2H-1-benzopyran-2-carboxamide] was run?
**A.** < 10 nM

**Q.** How did the EC50 turn out when `O=C(NC12CC(NC(=O)[C@H]3C[C@@H](O)c4cc(Cl)ccc4O3)(C1)C2)c1ccc(OC(F)(F)F)cn1` [Compound 376, N-(3-{[(2R,4R)-6-chloro-4-hydroxy-3,4-dihydro-2H-1-benzopyran-2-carbonyl]amino}bicyclo[1.1.1]pentan-1-yl)-5-(trifluoromethoxy)pyridine-2-carboxamide] was run?
**A.** 10 to 50 nM

**Q.** For `O=C(NC12CC(NC(=O)[C@H]3C[C@@H](O)c4cc(Cl)ccc4O3)(C1)C2)c1ccc(OC(F)(F)F)nc1` [Compound 377, N-(3-{[(2R,4R)-6-chloro-4-hydroxy-3,4-dihydro-2H-1-benzopyran-2-carbonyl]amino}bicyclo[1.1.1]pentan-1-yl)-6-(trifluoromethoxy)pyridine-3-carboxamide], which EC50 is on record?
**A.** 50 to 250 nM

**Q.** For `O=C(NC12CC(NC(=O)[C@H]3C[C@@H](O)c4cc(Cl)ccc4O3)(C1)C2)c1ccc(Cl)c(F)c1` [Compound 378, (2R,4R)-6-chloro-N-[3-(4-chloro-3-fluorobenzamido)bicyclo[1.1.1]pentan-1-yl]-4-hydroxy-3,4-dihydro-2H-1-benzopyran-2-carboxamide], which EC50 is on record?
**A.** 50 to 250 nM

**Q.** How did the EC50 turn out when `O=C(NC12CC(NC(=O)[C@H]3CC(=O)c4cc(Cl)ccc4O3)(C1)C2)c1ccc(OC(F)(F)F)cn1` [Compound 379, N-(3-{[(2R)-6-chloro-4-oxo-3,4-dihydro-2H-1-benzopyran-2-carbonyl]amino}bicyclo[1.1.1]pentan-1-yl)-5-(trifluoromethoxy)pyridine-2-carboxamide] was run?
**A.** 500 to 2000 nM

**Q.** Which EC50 does the source give for `O=C(NC12CC(NC(=O)[C@H]3C[C@@H](O)c4cc(Cl)ccc4O3)(C1)C2)c1cnn([C@H]2C[C@@H](OC(F)(F)F)C2)c1` [Compound 381, N-(3-{[(2R,4R)-6-chloro-4-hydroxy-3,4-dihydro-2H-1-benzopyran-2-carbonyl]amino}bicyclo[1.1.1]pentan-1-yl)-1-[cis-3-(trifluoromethoxy)cyclobutyl]-1H-pyrazole-4-carboxamide] here?
**A.** < 10 nM

**Q.** Which EC50 does the source give for `Cc1cnc(C(=O)NC23CC(NC(=O)[C@H]4C[C@@H](O)c5cc(Cl)ccc5O4)(C2)C3)cn1` [Compound 382, N-(3-{[(2R,4R)-6-chloro-4-hydroxy-3,4-dihydro-2H-1-benzopyran-2-carbonyl]amino}bicyclo[1.1.1]pentan-1-yl)-5-methylpyrazine-2-carboxamide] here?
**A.** 50 to 250 nM

**Q.** With `O=C(NC12CC(NC(=O)[C@H]3C[C@@H](O)c4cc(Cl)ccc4O3)(C1)C2)c1cnc(C2CC2)o1` [Compound 383, N-(3-{[(2R,4R)-6-chloro-4-hydroxy-3,4-dihydro-2H-1-benzopyran-2-carbonyl]amino}bicyclo[1.1.1]pentan-1-yl)-2-cyclopropyl-1,3-oxazole-5-carboxamide] as the molecule, how does the EC50 read?
**A.** 50 to 250 nM

**Q.** For `CCc1ncc(C(=O)NC23CC(NC(=O)[C@H]4C[C@@H](O)c5cc(Cl)ccc5O4)(C2)C3)o1` [Compound 384, N-(3-{[(2R,4R)-6-chloro-4-hydroxy-3,4-dihydro-2H-1-benzopyran-2-carbonyl]amino}bicyclo[1.1.1]pentan-1-yl)-2-ethyl-1,3-oxazole-5-carboxamide], which EC50 is on record?
**A.** 50 to 250 nM

**Q.** For `Cc1ncc(C(=O)NC23CC(NC(=O)[C@H]4C[C@@H](O)c5cc(Cl)ccc5O4)(C2)C3)s1` [Compound 385, N-(3-{[(2R,4R)-6-chloro-4-hydroxy-3,4-dihydro-2H-1-benzopyran-2-carbonyl]amino}bicyclo[1.1.1]pentan-1-yl)-2-methyl-1,3-thiazole-5-carboxamide], which EC50 is on record?
**A.** 50 to 250 nM

**Q.** How did the EC50 turn out when `O=C(NC12CC(NC(=O)[C@H]3C[C@@H](O)c4cc(Cl)ccc4O3)(C1)C2)c1ccccn1` [Compound 386, N-(3-{[(2R,4R)-6-chloro-4-hydroxy-3,4-dihydro-2H-1-benzopyran-2-carbonyl]amino}bicyclo[1.1.1]pentan-1-yl)pyridine-2-carboxamide] was run?
**A.** 50 to 250 nM

**Q.** Which EC50 does the source give for `O=C(NC12CC(NC(=O)[C@H]3C[C@@H](O)c4cc(Cl)ccc4O3)(C1)C2)c1cnc(C2CCC2)o1` [Compound 387, N-(3-{[(2R,4R)-6-chloro-4-hydroxy-3,4-dihydro-2H-1-benzopyran-2-carbonyl]amino}bicyclo[1.1.1]pentan-1-yl)-2-cyclobutyl-1,3-oxazole-5-carboxamide] here?
**A.** 50 to 250 nM

**Q.** `O=C(NC12CC(NC(=O)[C@H]3C[C@@H](O)c4cc(Cl)ccc4O3)(C1)C2)c1cnc(C2CN(CC(F)(F)F)C2)o1` [Compound 388, N-(3-{[(2R,4R)-6-chloro-4-hydroxy-3,4-dihydro-2H-1-benzopyran-2-carbonyl]amino}bicyclo[1.1.1]pentan-1-yl)-2-[1-(2,2,2-trifluoroethyl)azetidin-3-yl]-1,3-oxazole-5-carboxamide] was tested. Which EC50 did it give?
**A.** 250 to 500 nM

**Q.** With `O=C(NC12CC(NC(=O)[C@H]3C[C@@H](O)c4cc(Cl)ccc4O3)(C1)C2)c1cnc(C2CNC2)o1` [Compound 389, 2-(azetidin-3-yl)-N-(3-{[(2R,4R)-6-chloro-4-hydroxy-3,4-dihydro-2H-1-benzopyran-2-carbonyl]amino}bicyclo[1.1.1]pentan-1-yl)-1,3-oxazole-5-carboxamide] as the molecule, how does the EC50 read?
**A.** > 2000 nM

**Q.** Which EC50 does the source give for `O=C(NC12CC(NC(=O)[C@H]3C[C@@H](O)c4cc(Cl)ccc4O3)(C1)C2)c1cnn(-c2ccccc2)c1` [Compound 390, N-(3-{[(2R,4R)-6-chloro-4-hydroxy-3,4-dihydro-2H-1-benzopyran-2-carbonyl]amino}bicyclo[1.1.1]pentan-1-yl)-1-phenyl-1H-pyrazole-4-carboxamide] here?
**A.** 10 to 50 nM

**Q.** Which EC50 does the source give for `O=C(NC12CC(NC(=O)[C@H]3C[C@@H](O)c4cc(Cl)ccc4O3)(C1)C2)c1cnn(-c2ccc(Cl)c(F)c2)c1` [Compound 391, 1-(4-chloro-3-fluorophenyl)-N-(3-{[(2R,4R)-6-chloro-4-hydroxy-3,4-dihydro-2H-1-benzopyran-2-carbonyl]amino}bicyclo[1.1.1]pentan-1-yl)-1H-pyrazole-4-carboxamide] here?
**A.** < 10 nM

**Q.** How did the EC50 turn out when `O=C(NC12CC(NC(=O)[C@H]3C[C@@H](O)c4cc(Cl)ccc4O3)(C1)C2)c1cnn(-c2ccc(C(F)(F)F)nc2)c1` [Compound 392, N-(3-{[(2R,4R)-6-chloro-4-hydroxy-3,4-dihydro-2H-1-benzopyran-2-carbonyl]amino}bicyclo[1.1.1]pentan-1-yl)-1-[6-(trifluoromethyl)pyridin-3-yl]-1H-pyrazole-4-carboxamide] was run?
**A.** 500 to 2000 nM
